Laboratory results as given in patent US20140309192A1, “MODULATORS OF THE G PROTEIN-COUPLED MAS RECEPTOR AND THE TREATMENT OF DISORDERS RELATED THERETO” (ARENA PHARMACEUTICALS, INC., priority 2011, published 2014).

Experiments:
rat Mas receptor = molecular target: T1, rat Mas receptor (Rattus norvegicus, UniProt P12526); experiment: cAMP Dynamic2 HTRF assay, HEK293 cells stably expressing rat Mas receptor; format: cell-based; details: forskolin stimulated cAMP, means ± SEM, NR = No Response, read-out: Gi/cAMP IC50
T1 construct: expressed in transfected cells; host or cells: HEK293 (ATCC CRL-1573)
T1 sequence (P12526 1-324): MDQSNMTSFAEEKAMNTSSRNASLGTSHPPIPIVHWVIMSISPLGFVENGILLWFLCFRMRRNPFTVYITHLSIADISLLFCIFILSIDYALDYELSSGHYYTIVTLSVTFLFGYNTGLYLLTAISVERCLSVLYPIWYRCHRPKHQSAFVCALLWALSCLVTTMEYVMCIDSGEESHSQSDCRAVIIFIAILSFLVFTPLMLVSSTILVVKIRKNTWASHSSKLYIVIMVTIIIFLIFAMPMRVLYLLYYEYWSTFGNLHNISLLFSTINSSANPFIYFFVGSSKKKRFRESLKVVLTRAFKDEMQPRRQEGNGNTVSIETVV
Method: cAMP accumulation in HEK293 cells stably expressing human or rat Mas receptors was determined by the 384 well cAMP Dynamic2 Homogenous Time-Resolved Fluorescence (HTRF®) assay (CisBio Cat#62AM4PEB) following the manufacturer's protocol. Briefly, cells were plated at 30,000 or 1000 cells per well in 5 μL stimulation buffer (PBS containing 500 μM IBMX and 0.1% bovine serum albumin), 5 μL of Mas compounds diluted in PBS were added to each well and serial diluted cAMP standards were also added to corresponding wells at this step. For detecting […] activities, 10 μM forskolin was included with the compounds for a final concentration of 5 μM at the stimulation step. Following 1 h stimulation at room temperature, d2-labeled cAMP and anti-cAMP cryptate conjugate diluted in detection buffer (included in the kit) were added to cells sequentially at 5 μl per well. The plates were incubated further for 1 h at room temperature. Ratiometic measurements of fluorescence emission at 665 nm and 620 nm were obtained by Pherastar fluorometer (BMG Labtech) and cAMP levels in each well were calculated according to the standard curves on each plate. IC50 values were obtained by fitting data to a nonlinear curve-fitting program (GraphPad Software, Inc., La Jolla Calif.).

Male Sprague-Dawley rats [1] = experiment: Myocardial ischemia/reperfusion injury in rats, infarct size (Example 4); format: in vivo, rat
Method: (§1) Adult rats were anesthetized with sodium pentobarbital (50 mg/kg i.p.) and placed in the supine position on a surgery frame with a heating pad (37° C.) beneath. Rats were tracheostomized and ventilated with a SAR-830 small-animal ventilator (Model 683, Harvard Apparatus) to provide room air at a tidal volume of 2.5 mL/stroke and at a rate of 70 stroke/min. Polyethylene catheters were placed in the right internal carotid artery and the external jugular vein for measurement of mean arterial blood pressure and infusion of drug or vehicle, respectively.
Myocardial I/R injury was produced as follows. A left thoracotomy was performed approximately 20 mm from the sternum to expose the heart at the fifth intercostal space. […]
Animals were randomly divided into the following 4 groups: (1-3) low, medium, and high doses of Compound 170 administered by continuous i.v. infusion starting 30 min before coronary artery ligation (n=6 per dose), and (4) 20% HPBCD (vehicle, hydroxypropyl-β-cyclodextrin) administered by continuous i.v. infusion beginning 30 min before coronary artery ligation (n=6). […] Mean arterial blood pressure was measured after stabilization and just prior to drug infusion (baseline) and again following 25 min of drug or vehicle infusion, before coronary artery ligation. […]

[2] = Mean arterial blood pressure in anesthetized rats (Example 4); format: in vivo, rat; details: low, medium and high dose i.v.; 25 min after starting dosing
Method: as §1
Animals were randomly divided into the following 4 groups: (1-3) low, medium, and high doses of Compound 170 administered by continuous i.v. infusion starting 30 min before coronary artery ligation (n=6 per dose), and (4) 20% HPBCD (vehicle, hydroxypropyl-β-cyclodextrin) administered by continuous i.v. infusion beginning 30 min before coronary artery ligation (n=6). All the rat hearts listed above were used for calculation of myocardial infarct size (see below). Mean arterial blood pressure was measured after stabilization and just prior to drug infusion (baseline) and again following 25 min of drug or vehicle infusion, before coronary artery ligation. […]

Male Sprague-Dawley rats [3] = experiment: Left kidney artery ischemia reperfusion injury model; format: in vivo, rat
Method: Rats were anesthetized with pentobarbital (70 mg/kg). Normal body temperature was maintained by placing the animals on heating pads until recovery from anesthesia. Following a midline abdominal incision, the left renal pedicle was localized and the renal artery and vein were dissected. An atraumatic microvascular clamp was placed, and the left renal artery was occluded for 45 minutes. After inspection for signs of ischemia, the wound was covered with PBS soaked cotton. After release of the clamp, restoration of blood-flow was inspected visually and the wound was closed with surgical staples and the animal was allowed to recover. 24 hours following the end of ischemia blood was collected and markers of kidney function, creatinine and blood urea nitrogen (BUN) were measured.
15 minutes prior to renal artery occlusion either vehicle (20% hydroxypropyl-β-cyclodextrin) or a loading dose of 6.26 mg/kg Mas inverse agonist (Compound 170) was administered i.v. followed by a i.v. maintenance dose of 1.64 mg/kg/hr lasting for 2 hours following removal of the renal artery clamp. A renoprotective positive control peptide, Atrial natriuretic peptide (ANP, 0.2 μg/kg/min), was administered by continuous i.v. infusion starting 15 minutes prior to renal artery occlusion and lasting for 2 hours following removal of the renal artery clamp, see FIG. 43 for protocol.

[4] = 6.26 mg/kg loading + 1.64 mg/kg/hr i.v., 45 minutes occlusion, blood 24 hours after ischemia

Row | SMILES | IC50 (rat Mas receptor) | reduction of myocardial infarction size (Male Sprague-Dawley rats [1]; FIG. 5, rats subjected to coronary artery ligation and reperfusion) | myocardial infarct size after reperfusion compared to vehicle treatment (Male Sprague-Dawley rats [1]; medium (1.878 mg/kg loading + 0.492 mg/kg/h) and high dose (6.26 mg/kg loading + 1.64 mg/kg/h) i.v., 30 min ischemia, 2 h reperfusion) | mean arterial blood pressure (MAP) compared to vehicle treatment [2] | kidney function as measured by blood creatinine (Male Sprague-Dawley rats [3]; [4]) | kidney function as measured by blood urea nitrogen (BUN) (Male Sprague-Dawley rats [3]; [4]) | degree of renal protection (Male Sprague-Dawley rats [3]; compared with ANP 0.2 μg/kg/min)
1 | COc1cc([N+](=O)[O-])ccc1S(=O)(=O)N1CC(CN2CCN(c3ccccn3)CC2)C(c2cccc(F)c2)C1 (stereo not shown) [AR234960] | 1.71 ± 0.011 µM | – | – | – | – | – | –
2 | NC(=O)[C@H](CO)NCc1ccc(C(=O)Nc2ccc(Cl)cc2N2CCN(CCC(F)(F)F)CC2)c(F)c1F [Compound 170, (S)-4-((1-Amino-3-hydroxy-1-oxopropan-2-ylamino)methyl)-N-(4-chloro-2-(4-(3,3,3-trifluoropropyl)piperazin-1-yl)phenyl)-2,3-difluorobenzamide] | – | dose dependent effect | significant decrease | no significant effect | improves kidney function | improves kidney function | at the same activity compared to ANP
